pIC50: −log10 of the molar value.
Experiments:
[1] = target: His-tagged KRAS G12D protein (Homo sapiens, UniProt P01116, G12D); test: KRAS G12D TR-FRET Assay; assay type: binding; settings: biotinylated KRPep-2d substrate, 10 μM GDP;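 note: europium anti-His antibody paired with streptavidin-d2 as FRET partners, initial 30 min incubation, then peptide 1 h and detection reagents 1 h, all at room temperature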
[2] = target: GDP-bound KRAS protein (aa 1-169), containing both G12D and C118A amino acid substitutions (Homo sapiens, UniProt P01116, C118A/G12D); test: KRAS G12D Coupled Nucleotide Exchange Assay; assay type: biochemical; settings: 2 h compound pre-incubation; SOS-mediated nucleotide exchange, cRAF AlphaScreen readout;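 note: IC50 obtained by fitting the AlphaScreen signal with a four-parameter logistic curve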
Sequence of GDP-bound KRAS protein (aa 1-169), containing both G12D and C118A amino acid substitutions (P01116 1-169 isoform P01116-2 G12D/C118A): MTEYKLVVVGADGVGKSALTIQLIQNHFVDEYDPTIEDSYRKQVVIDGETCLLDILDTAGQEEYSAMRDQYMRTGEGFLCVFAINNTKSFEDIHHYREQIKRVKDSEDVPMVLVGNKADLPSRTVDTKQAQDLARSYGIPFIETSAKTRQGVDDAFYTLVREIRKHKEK

Sequence of His-tagged KRAS G12D protein (P01116 1-188 isoform P01116-2 G12D): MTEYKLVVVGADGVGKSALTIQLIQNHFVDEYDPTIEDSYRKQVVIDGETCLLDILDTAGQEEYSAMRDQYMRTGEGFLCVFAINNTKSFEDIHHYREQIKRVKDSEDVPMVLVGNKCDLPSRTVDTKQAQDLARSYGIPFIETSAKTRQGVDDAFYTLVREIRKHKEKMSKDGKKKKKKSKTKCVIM

| Compound | pIC50 [1] | Avg 2 h Coupled Exchange IC50 [2] |
| --- | --- | --- |
| CN1CCC[C@H]1COc1nc(N2CCCNC(=O)C2)c2cc(Cl)c(-c3cccc4sc(N)nc34)c(F)c2n1 [Example 22, 4-(7-(2-aminobenzo[d]thiazol-4-yl)-6-chloro-8-fluoro-2-(((S)-1-methylpyrrolidin-2-yl)methoxy)quinazolin-4-yl)-1,4-diazepan-2-one] | 6.77 | 114 nM |
| CN1CCC[C@H]1COc1nc(N2CCNC(=O)C2)c2cc(Cl)c(-c3cccc4sc(N)nc34)c(F)c2n1 [Example 23, 4-(7-(2-aminobenzo[d]thiazol-4-yl)-6-chloro-8-fluoro-2-(((S)-1-methylpyrrolidin-2-yl)methoxy)quinazolin-4-yl)piperazin-2-one] | 6.17 | 166 nM |
| CN1CCC[C@H]1COc1nc(N2CCNC(=O)CC2)c2cc(Cl)c(-c3cccc4sc(N)nc34)c(F)c2n1 [Example 24, 1-(7-(2-aminobenzo[d]thiazol-4-yl)-6-chloro-8-fluoro-2-(((S)-1-methylpyrrolidin-2-yl)methoxy)quinazolin-4-yl)-1,4-diazepan-5-one] | 6.80 | 172 nM |
| CN1CCC[C@H]1COc1nc(N2CCN[C@@H](CO)C2)c2cc(Cl)c(-c3cccc4sc(N)nc34)c(F)c2n1 [Example 25, ((2R)-4-(7-(2-aminobenzo[d]thiazol-4-yl)-6-chloro-8-fluoro-2-(((S)-1-methylpyrrolidin-2-yl)methoxy)quinazolin-4-yl)piperazin-2-yl)methanol] | 6.62 | 181 nM |
| CN1CCC[C@H]1COc1nc(N2CCN[C@@H](CC#N)C2)c2cc(Cl)c(-c3cccc4sc(N)nc34)c(F)c2n1 [Example 26, 2-((2S)-4-(7-(2-aminobenzo[d]thiazol-4-yl)-6-chloro-8-fluoro-2-(((S)-1-methylpyrrolidin-2-yl)methoxy)quinazolin-4-yl)piperazin-2-yl)acetonitrile] | 5.92 | 409 nM |
| CN1CCC[C@H]1COc1nc(N2C[C@H]3CC[C@@H]2CN3)c2cc(Cl)c(-c3cccc4sc(N)nc34)c(F)c2n1 [Example 27, 4-(4-((1R,4R)-2,5-diazabicyclo[2.2.2]octan-2-yl)-6-chloro-8-fluoro-2-(((S)-1-methylpyrrolidin-2-yl)methoxy)quinazolin-7-yl)benzo[d]thiazol-2-amine] | 5.92 | 429 nM |
| CN1CCC[C@H]1COc1nc(N2CCNC[C@@H]2CCO)c2cc(Cl)c(-c3cccc4sc(N)nc34)c(F)c2n1 [Example 36, 2-((2S)-1-(7-(2-aminobenzo[d]thiazol-4-yl)-6-chloro-8-fluoro-2-(((S)-1-methylpyrrolidin-2-yl)methoxy)quinazolin-4-yl)piperazin-2-yl)ethan-1-ol] | 5.23 | 2250 nM |
| CN1CCC[C@H]1COc1nc(N2CCNC[C@@H]2CO)c2cc(Cl)c(-c3cccc4sc(N)nc34)c(F)c2n1 [Example 37, ((2R)-1-(7-(2-aminobenzo[d]thiazol-4-yl)-6-chloro-8-fluoro-2-(((S)-1-methylpyrrolidin-2-yl)methoxy)quinazolin-4-yl)piperazin-2-yl)methanol] | 5.71 | 388 nM |
| CN1C[C@H](F)C[C@H]1COc1nc(N2C[C@H]3COC[C@@H](C2)N3)c2cc(Cl)c(-c3ccc(F)c4sc(N)nc34)c(F)c2n1 [Example 41, 4-(4-((1R,5S)-3-oxa-7,9-diazabicyclo[3.3.1]nonan-7-yl)-6-chloro-8-fluoro-2-(((2S,4R)-4-fluoro-1-methylpyrrolidin-2-yl)methoxy)quinazolin-7-yl)-7-fluorobenzo[d] thiazol-2-amine] | 7.10 | 65 nM |
| Nc1nc2c(-c3c(Cl)cc4c(N5C[C@H]6COC[C@@H](C5)N6)nc(OC[C@@]56CCCN5C[C@H](F)C6)nc4c3F)ccc(F)c2s1 [Example 42, 4-(4-((1R,5S)-3-oxa-7,9-diazabicyclo[3.3.1]nonan-7-yl)-6-chloro-8-fluoro-2-(((2R,7aS)-2-fluorotetrahydro-1H-pyrrolizin-7a(5H)-yl)methoxy)quinazolin-7-yl)-7-fluorobenzo[d] thiazol-2-amine] | 7.92 | 12 nM |
| Nc1nc2c(-c3c(Cl)cc4c(N5CCNCC5)nc(OCC56CCCN5C(=O)CC6)nc4c3F)cccc2s1 (centres unmarked) [Example 43, 7a-(((7-(2-aminobenzo[d]thiazol-4-yl)-6-chloro-8-fluoro-4-(piperazin-1-yl)quinazolin-2-yl)oxy)methyl)hexahydro-3H-pyrrolizin-3-one] | 5.50 | 3290 nM |
| Nc1nc2c(-c3c(Cl)cc4c(N5CCNCC5)nc(OCC56CCCN5CCC6)nc4c3F)cccc2s1 [Example 44, 4-(6-chloro-8-fluoro-4-(piperazin-1-yl)-2-((tetrahydro-1H-pyrrolizin-7a(5H)-yl)methoxy)quinazolin-7-yl)benzo[d] thiazol-2-amine] | 7.52 | 14 nM |
| C[C@@H](CN(C)C)Oc1nc(N2CCNCC2)c2cc(Cl)c(-c3cccc4sc(N)nc34)c(F)c2n1 [Example 48, 4-(6-chloro-2-(((S)-1-(dimethylamino)propan-2-yl)oxy)-8-fluoro-4-(piperazin-1-yl)quinazolin-7-yl)benzo[d] thiazol-2-amine] | 6.80 | 26 nM |
| CN1C[C@H](F)C[C@H]1COc1nc(N2CCNCC2)c2cc(Cl)c(-c3cccc4sc(N)nc34)c(F)c2n1 [Example 49, 4-(6-chloro-8-fluoro-2-(((2S,4R)-4-fluoro-1-methyl-pyrrolidin-2-yl)methoxy)-4-(piperazin-1-yl)quinazolin-7-yl)benzo[d] thiazol-2-amine] | 6.85 | 38 nM |
| Nc1nc2c(-c3c(Cl)cc4c(N5CCNCC5)nc(OCC56CCCN5CC(F)(F)C6)nc4c3F)cccc2s1 (centres unmarked) [Example 54, 4-(6-chloro-2-((2,2-difluorotetra-hydro-1H-pyrrolizin-7a(5H)-yl)methoxy)-8-fluoro-4-(piperazin-1-yl)quinazolin-7-yl)benzo[d] thiazol-2-amine] | 7.06 | 79 nM |
| Nc1nc2c(-c3c(Cl)cc4c(N5CCNCC5)nc(OC[C@@H]5C[C@H](F)CN5)nc4c3F)cccc2s1 [Example 55, 4-(6-chloro-8-fluoro-2-(((2S,4S)-4-fluoro-pyrrolidin-2-yl)methoxy)-4-(piperazin-1-yl)quinazolin-7-yl)benzo[d] thiazol-2-amine] | 6.55 | 106 nM |
| Nc1nc2c(-c3c(Cl)cc4c(N5CCNCC5)nc(OC[C@@H]5CC(F)(F)CN5)nc4c3F)cccc2s1 [Example 59, 4-(6-chloro-2-(((S)-4,4-difluoro-pyrrolidin-2-yl)methoxy)-8-fluoro-4-(piperazin-1-yl)quinazolin-7-yl)benzo[d] thiazol-2-amine] | 6.16 | 321 nM |
| CN1C[C@@H](F)C[C@H]1COc1nc(N2CCNCC2)c2cc(Cl)c(-c3cccc4sc(N)nc34)c(F)c2n1 [Example 62, 4-(6-chloro-8-fluoro-2-(((2S,4S)-4-fluoro-1-methyl-pyrrolidin-2-yl)methoxy)-4-(piperazin-1-yl)quinazolin-7-yl)benzo[d] thiazol-2-amine] | 6.17 | 394 nM |
| CCN1CCC(COc2nc(N3CCNCC3)c3cc(Cl)c(-c4cccc5sc(N)nc45)c(F)c3n2)CC1 [Example 63, 4-(6-chloro-2-((1-ethylpiperidin-4-yl)methoxy)-8-fluoro-4-(piperazin-1-yl)quinazolin-7-yl)benzo[d] thiazol-2-amine] | 6.33 | 429 nM |
| CN1CCCC[C@H]1COc1nc(N2CCNCC2)c2cc(Cl)c(-c3cccc4sc(N)nc34)c(F)c2n1 [Example 64, 4-(6-chloro-8-fluoro-2-(((S)-1-methyl-piperidin-2-yl)methoxy)-4-(piperazin-1-yl)quinazolin-7-yl)benzo[d] thiazol-2-amine] | 5.92 | 446 nM |
| CN1CC(F)(F)C[C@H]1COc1nc(N2CCNCC2)c2cc(Cl)c(-c3cccc4sc(N)nc34)c(F)c2n1 [Example 65, 4-(6-chloro-2-(((S)-4,4-difluoro-1-methyl-pyrrolidin-2-yl)methoxy)-8-fluoro-4-(piperazin-1-yl)quinazolin-7-yl)benzo[d] thiazol-2-amine] | 5.74 | 504 nM |
| Nc1nc2c(-c3c(Cl)cc4c(N5CCNCC5)nc(OC[C@@H]5CCCN5CC(F)F)nc4c3F)cccc2s1 [Example 66, 4-(6-chloro-2-(((S)-1-(2,2-difluoroethyl)pyrrolidin-2-yl)methoxy)-8-fluoro-4-(piperazin-1-yl)quinazolin-7-yl)benzo[d] thiazol-2-amine] | 5.79 | 549 nM |
| CN(C)C1CN(c2nc(N3CCNCC3)c3cc(Cl)c(-c4cccc5sc(N)nc45)c(F)c3n2)C1 [Example 67, 4-(6-chloro-2-(3-(dimethylamino)azetidin-1-yl)-8-fluoro-4-(piperazin-1-yl)quinazolin-7-yl)benzo[d] thiazol-2-amine] | 5.79 | 670 nM |
| Nc1nc2c(-c3c(Cl)cc4c(N5CCNCC5)nc(OC[C@@H]5CCC(=O)N5)nc4c3F)cccc2s1 [Example 68, (5S)-5-(((7-(2-aminobenzo[d]thiazol-4-yl)-6-chloro-8-fluoro-4-(piperazin-1-yl)quinazolin-2-yl)oxy)methyl) pyrrolidin-2-one] | 6.08 | 718 nM |
| C[C@H](CN(C)C)Oc1nc(N2CCNCC2)c2cc(Cl)c(-c3cccc4sc(N)nc34)c(F)c2n1 [Example 69, 4-(6-chloro-2-(((R)-1-(dimethylamino)propan-2-yl)oxy)-8-fluoro-4-(piperazin-1-yl)quinazolin-7-yl)benzo[d] thiazol-2-amine] | 5.11 | 1890 nM |
